In data set [1] the test system is NF-κB. The data set is described as follows: NF-κB-dependent luciferase reporter (κB.BG.Luc) in amnion cells. It is filed as cell-based, human. The note with it: L− and L+ amnion cells, treated 2 h, IL-1β 1 ng/ml 6 h. The protocol:
. Values are normalised for b-gal reporter activity.
Placentae were obtained from patients at term either at elective Caesarean section prior to labour (L−) or following spontaneous labour onset and vaginal delivery (L+). Amnion cells were prepared as described in Bennett et al., (1989). Briefly, the amnion was separated from the placenta, washed 3× in PBS, cut into strips, and incubated in 0.51 mM EDTA in PBS for 15 min. The strips were washed in PBS 2× and digested with 2.5 mg/ml dispase in serum-free DMEM for 35 min at 37° C. The amnion was then shaken vigorously in DMEM, 10% FCS to dissociate the cells, the remaining strips discarded, and the cell suspension pelleted at 175 g for 10 min and cultured in DMEM, 10% FCS (Sigma), 1% L-glutamine, 1% penicillin-streptomycin.
pGL3.6 κB.BG.luc was the reporter construct used to assess NF-κB-mediated transcription, while the mutant pGL3.6 κBmut.luc and empty pGL3.BG.luc were used as controls (Schwarzer et al., 1998).
pGL3.6 κB.BG.luc: a NF-κB-dependent reporter construct with 6 copies of the NF-κB binding site. It contains two tandem repeats of the sequence 5′-GGG GAC TTT C CC TGGGGACTTTCCCTGGGGACTTTCCC-3′, which contains three copies of the decameric NF-κB binding site (underlined) upstream of a minimal β-globin promoter driving a luciferase gene. […]
In general terms: Reporter assays use an easily measured gene product as a stand-in for the process of interest.

Data set [2] deals with NF-κB. The data set is described as follows: EMSA of NF-κB DNA binding in nuclear extracts of treated myometrial cells. The format is cell-based, human. The note with it: for IL-1β-induced NF-κB DNA binding: myometrial cells, treated 2 h, IL-1β stimulation 15 min. As for the experimental part: Electro-mobility shift assay (EMSA) analysis of NF-κB DNA binding in nuclear protein extracts from (A) myometrial cells, (B) L+amnion cells, and (C) L− amnion cells treated with 15dPGJ2 or vehicle for 2 h+/−IL-1b stimulation (15 min). Consensus kB probe used to assess NF-κB DNA binding, and consensus Oct-1 probe used as control.
Consensus κB probe used to assess NF-κB DNA binding, consensus Oct-1 probe used as control. For supershift analysis, extracts were preincubated with antibodies against p50 or p65.
EMSA analysis of nuclear protein extracts from myometrial cells treated with (A) WY-14643 or vehicle, and (B) high doses of troglitazone, WY-14643 or vehicle for 2 h followed by IL-1b stimulation (15 min). Consensus κB probe used to assess NFκB DNA binding, consensus Oct-1 and Sp-1 probes used as controls.
EMSA analysis of nuclear protein extracts from (A) myometrial cells, and (B) amnion cells treated with PGA1 or vehicle for 2 h followed by IL-1b stimulation (15 min). Consensus κB probe used to assess NFκB DNA binding, consensus Oct-1 probe used as control. For supershift analysis, extracts were preincubated with antibodies against p50 or p65.
Analysis of nuclear protein extracts from myometrial cells treated with PGE2 or vehicle for 2 h+/−TNFα or IL-1b stimulation (15 min). (A) EMSA using consensus κB probe. (B) Western immunoblot probing for nuclear p65.
EMSA analysis of nuclear protein extracts from (A) L− amnion cells and (B) myometrial cells treated with vehicle, PGE2 or IL-1β. Consensus κB probe used.
Myometrial tissue was collected at term from the upper margin of uterine incision at the time of lower segment caesarean section either prior to the onset of labour (L−) or […] (L+). L+ samples were collected by Dr Mark Johnson and Dr S Soorrana at Chelsea & Westminster Hospital. Myometrial tissue was dissected, rinsed in PBS, and digested in serum-free DMEM containing 15 mg/ml collagenase 1A (Sigma), 15 mg/ml collagenase X, and 50 mg/ml bovine serum albumin for 45 min at 37° C. The cell suspension was filtered through a cell strainer, centrifuged at 400 g for 5 min, and the pellet re-suspended and plated out in DMEM, 10% FCS (Helena BioScience), 1% L-glutamine, 1% penicillin-streptomycin. Cells were used between passage numbers 1-4.
Nuclear and cytosolic protein extracts were obtained from cultured amnion cells as described by Schreiber et al (1989). For nuclear/cytosolic fractionation, confluent cell monolayers were scraped and lysed using a buffer containing 10 mM HEPES, 10 mM KCl, 0.1 mM EDTA, 0.1 mM EGTA, 2 mM DTT, 1% (v/v) NP-40 and complete protease inhibitor tablets (CPIs, Roche), diluted to manufacturer's instructions. Cell lysates were incubated on ice for 10 min and NP-40 added to a final concentration of 1% (v/v). Lysates were vortexed for 10 secs and centrifuged for 30 secs at 4° C., 12000 g. The supernatants were retained as the cytosolic protein extracts. The pellets were resuspended in buffer containing 10 mM HEPES, 10 mM KCl, 0.1 mM EDTA, 0.1 mM EGTA, 2 mM DTT, 400 mM NaCl, 1% NP-40 (v/v) and CPIs. Samples were shaken vigorously for 15 min in an ice bath. The nuclear protein extracts were obtained in the supernatant following a 5 min centrifugation at 4° C., 12000 g.
Sense and antisense strands (175 nmole/ml each) were incubated in annealing buffer (10 mM Tris-HCl pH7.5, 100 mM NaCl, 1 mM EDTA) for 10 min at 65° C., and allowed to cool at room temperature for 2 h. 3.5 pmole double-stranded oligonucleotides were end-labelled with 0.37 MBq ^32P(γATP) by incubating for 30 min at 37° C. with T4 polynucleotide kinase. Labelled oligonucleotides were recovered by centrifugation at […] for 2 min through MicroSpin G-25 or G-50 sephadex columns (Amersham Biosciences). […]

Turning to `CCCCCC=CC=C1C(=O)C=C[C@@H]1CC=CCCCC(=O)O` [15d-PGJ2, 15-deoxy-Δ^12,14prostaglandin J2], the “IL-1-induced NF-κB transcriptional activity” value with NF-κB [1] was “inhibited”. In addition, the “Protein binding to a consensus Oct-1 or Sp-1 probe (control)” value in the data set with NF-κB [2] (control for NF-κB-specific effect) is given as “unaffected”. The “IL-1β-induced NF-κB DNA binding” value with NF-κB [2] is on record as “inhibited”.
On to `CCCCC[C@H](O)/C=C/[C@H]1C=CC(=O)[C@@H]1CCCCCCC(=O)O` [PGA1, prostaglandin A1], for which the “IL-1-induced NF-κB transcriptional activity” value with NF-κB [1] is listed as “inhibited”. For the same compound, the “IL-1β-induced NF-κB DNA binding” value in the data set with NF-κB [2] is given as “able to inhibit”.

The values above are taken from patent US20070270392A1, “Use of a Cyclopentenone Prostaglandin for Delaying the Onset and/or Preventing the Continuation of Labour” (Imperial College Innovations Limited, priority 2003, published 2007).
